ChEMBL document CHEMBL3612053, “Discovery and SAR study of 3-(tert-butyl)-4-hydroxyphenyl benzoate and benzamide derivatives as novel farnesoid X receptor (FXR) antagonists” (Bioorg Med Chem, 2015)
pIC50: −log10 of the molar value.

What was measured:
Bile acid receptor = molecular target: T1, Bile acid receptor (Homo sapiens, UniProt Q96RI1); assay: Antagonist activity at GST-tagged FXR LBD (unknown origin) assessed as inhibition of CDCA-induced Bio-SRC-1 recruitment after 30 mins by HTRF assay
T1 sequence (Q96RI1 whole entry): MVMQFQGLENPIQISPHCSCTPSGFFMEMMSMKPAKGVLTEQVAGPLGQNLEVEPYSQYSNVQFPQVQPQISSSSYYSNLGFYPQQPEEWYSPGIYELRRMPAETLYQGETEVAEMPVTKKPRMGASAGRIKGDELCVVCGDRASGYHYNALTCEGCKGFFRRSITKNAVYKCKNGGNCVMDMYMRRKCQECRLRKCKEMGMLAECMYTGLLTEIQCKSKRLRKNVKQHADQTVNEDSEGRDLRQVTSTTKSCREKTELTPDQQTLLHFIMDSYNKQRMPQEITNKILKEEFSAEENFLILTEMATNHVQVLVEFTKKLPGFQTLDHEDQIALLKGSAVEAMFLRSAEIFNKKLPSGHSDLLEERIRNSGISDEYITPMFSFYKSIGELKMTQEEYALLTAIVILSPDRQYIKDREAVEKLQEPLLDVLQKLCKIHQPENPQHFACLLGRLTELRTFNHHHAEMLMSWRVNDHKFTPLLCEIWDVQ

[1] = Half life in serum (unknown origin); assay type: ADME, cell-free
[2] = molecular target: T2, Bile acid receptor (Homo sapiens) (UniProt Q96RI1); assay: Potency index, ratio of guggulsterone IC50 to compound IC50 for GST-tagged FXR LBD (unknown origin)
T2 sequence (whole entry): T1 sequence (Q96RI1 whole entry)

Compound	pIC50 (Bile acid receptor)	half-life [1] [h]	Ratio IC50 [2]
CC(C)(C)c1cc(OC(=O)c2ccc(Cl)cc2Cl)ccc1O	4.99	0.167	–
CC(C)(C)c1cc(NC(=O)c2c(Cl)cc(NC3CCCCC3)cc2Cl)ccc1O	5.60	> 1	–
CC(C)(C)c1cc(NC(=O)c2c(Cl)cc(N3CCNCC3)cc2Cl)ccc1O	< 4.00	> 1	–
CC(C)(C)c1cc(OC(=O)c2c(Cl)cc([N+](=O)[O-])cc2Cl)ccc1O	5.23	< 0.25	–
CN(c1cc(Cl)c(C(=O)Nc2ccc(O)c(C(C)(C)C)c2)c(Cl)c1)C1CCCCC1	< 4.00	> 1	–
CC(C)(C)c1cc(NC(=O)c2ccc(Cl)cc2Cl)ccc1O	4.87	> 1	–
CC(C)(C)c1cc(OC(=O)c2c(Cl)cc(N)cc2Cl)ccc1O	6.22	< 0.25	100
CC(C)(C)c1cc(OC(=O)c2ccc([N+](=O)[O-])cc2)ccc1O	4.90	< 0.25	–
CC(C)(C)c1cc(OC(=O)c2ccc(Cl)cc2)ccc1O	< 4.00	< 0.25	–
CCc1cc(NC(=O)c2ccc(Cl)cc2Cl)ccc1O	< 4.00	> 1	–
CC(C)c1cc(NC(=O)c2ccc(Cl)cc2Cl)ccc1O	< 4.00	> 1	–
CC(C)(C)c1cc(NC(=O)c2c(Cl)cc(NCc3cccnc3)cc2Cl)ccc1O	5.44	> 1	–
CNc1cc(Cl)c(C(=O)Nc2ccc(O)c(C(C)(C)C)c2)c(Cl)c1	4.86	> 1	–
CC(C)(C)c1cc(OC(=O)c2ccc([N+](=O)[O-])cc2Cl)ccc1O	5.06	< 0.25	–
CN(C)c1cc(Cl)c(C(=O)N(C)c2ccc(O)c(C(C)(C)C)c2)c(Cl)c1	5.41	> 1	–
CC(C)(C)c1cc(NC(=O)c2c(Cl)cc(NCc3cccs3)cc2Cl)ccc1O	5.07	> 1	–
Cc1ccccc1C(=O)Oc1ccc(O)c(C(C)(C)C)c1	< 4.00	< 0.25	–
CC(C)(C)c1cc(OC(=O)c2ccccc2)ccc1O	< 4.00	< 0.25	–
CN(C)c1cc(Cl)c(C(=O)N(Cc2cccnc2)c2ccc(O)c(C(C)(C)C)c2)c(Cl)c1	5.20	> 1	–
CCNc1cc(Cl)c(C(=O)Nc2ccc(O)c(C(C)(C)C)c2)c(Cl)c1	4.54	> 1	–

Compound	pIC50 (Bile acid receptor)	half-life [1] [h]	Ratio IC50 [2]
CN(C)c1cc(Cl)c(C(=O)N(c2ccc(O)c(C(C)(C)C)c2)C2CCCCC2)c(Cl)c1	< 4.00	> 1	–
COc1ccccc1C(=O)Oc1ccc(O)c(C(C)(C)C)c1	< 4.00	< 0.25	–
C=CCOc1ccc(NC(=O)c2ccc(Cl)cc2Cl)cc1C(C)(C)C	< 4.00	> 1	–
CC(C)(C)c1cc(OC(=O)c2ccc(N)cc2Cl)ccc1O	5.14	< 0.25	–
CC(=O)Oc1ccc(NC(=O)c2ccc(Cl)cc2Cl)cc1C(C)(C)C	4.81	> 1	–
CC(C)(C)c1cc(OC(=O)/C=C/c2ccccc2)ccc1O	< 4.00	< 0.25	–
CC(C)(C)c1cc(NC(=O)c2c(Cl)cc(N3CCCCC3)cc2Cl)ccc1O	< 4.00	> 1	–
CC(C)(C)c1cc(NC(=O)c2ccc(Cl)cc2Cl)cc(C(C)(C)C)c1O	< 4.00	> 1	–
CN(C)c1cc(Cl)c(C(=O)N(CC2CCCCC2)c2ccc(O)c(C(C)(C)C)c2)c(Cl)c1	< 4.00	> 1	–
CN(C)c1cc(Cl)c(C(=O)Nc2ccc(O)c(C(C)(C)C)c2)c(Cl)c1	5.85	> 1	–
CC(C)(C)c1cc(OC(=O)c2ccco2)ccc1O	< 4.00	< 0.25	–
Cc1ccc(C(=O)Oc2ccc(O)c(C(C)(C)C)c2)cc1	< 4.00	< 0.25	–
CC(C)(C)c1cc(NC(=O)c2c(Cl)cc(N)cc2Cl)ccc1O	5.28	> 1	–
CC(C)(C)c1cc(OC(=O)c2ccc(N)cc2)ccc1O	4.47	< 0.25	–
Cc1cc(NC(=O)c2ccc(Cl)cc2Cl)ccc1O	< 4.00	> 1	–
CC(C)(C)c1cc(NC(=O)c2c(Cl)cc(NCc3ccncc3)cc2Cl)ccc1O	5.01	> 1	–
COc1ccc(NC(=O)c2ccc(Cl)cc2Cl)cc1C(C)(C)C	< 4.00	> 1	–
CC(C)(C)c1cc(NC(=O)c2c(Cl)cc(NC3CCCC3)cc2Cl)ccc1O	5.30	> 1	–
CC(C)(C)c1cc(OC(=O)Cc2ccccc2)ccc1O	< 4.00	< 0.25	–
